According to patent publication US20200239530A1, “COMPOUNDS AND METHODS OF MODULATING PROTEIN DEGRADATION” (Vividion Therapeutics, Inc., priority 2017, published 2020):

Columns and labels:
Assay in all cases: Cysteine liganding, probe competition
Type in all cases: binding
[1] = molecular target: T1, HECTD1 E3 ubiquitin-protein ligase HECTD1 (Homo sapiens, UniProt Q9ULT8)
T1 construct: Cells were resuspended in cold PBS on ice and sonicated with a probe sonicator to achieve lysis; endogenous in cells
T1 sequence (Q9ULT8 whole entry): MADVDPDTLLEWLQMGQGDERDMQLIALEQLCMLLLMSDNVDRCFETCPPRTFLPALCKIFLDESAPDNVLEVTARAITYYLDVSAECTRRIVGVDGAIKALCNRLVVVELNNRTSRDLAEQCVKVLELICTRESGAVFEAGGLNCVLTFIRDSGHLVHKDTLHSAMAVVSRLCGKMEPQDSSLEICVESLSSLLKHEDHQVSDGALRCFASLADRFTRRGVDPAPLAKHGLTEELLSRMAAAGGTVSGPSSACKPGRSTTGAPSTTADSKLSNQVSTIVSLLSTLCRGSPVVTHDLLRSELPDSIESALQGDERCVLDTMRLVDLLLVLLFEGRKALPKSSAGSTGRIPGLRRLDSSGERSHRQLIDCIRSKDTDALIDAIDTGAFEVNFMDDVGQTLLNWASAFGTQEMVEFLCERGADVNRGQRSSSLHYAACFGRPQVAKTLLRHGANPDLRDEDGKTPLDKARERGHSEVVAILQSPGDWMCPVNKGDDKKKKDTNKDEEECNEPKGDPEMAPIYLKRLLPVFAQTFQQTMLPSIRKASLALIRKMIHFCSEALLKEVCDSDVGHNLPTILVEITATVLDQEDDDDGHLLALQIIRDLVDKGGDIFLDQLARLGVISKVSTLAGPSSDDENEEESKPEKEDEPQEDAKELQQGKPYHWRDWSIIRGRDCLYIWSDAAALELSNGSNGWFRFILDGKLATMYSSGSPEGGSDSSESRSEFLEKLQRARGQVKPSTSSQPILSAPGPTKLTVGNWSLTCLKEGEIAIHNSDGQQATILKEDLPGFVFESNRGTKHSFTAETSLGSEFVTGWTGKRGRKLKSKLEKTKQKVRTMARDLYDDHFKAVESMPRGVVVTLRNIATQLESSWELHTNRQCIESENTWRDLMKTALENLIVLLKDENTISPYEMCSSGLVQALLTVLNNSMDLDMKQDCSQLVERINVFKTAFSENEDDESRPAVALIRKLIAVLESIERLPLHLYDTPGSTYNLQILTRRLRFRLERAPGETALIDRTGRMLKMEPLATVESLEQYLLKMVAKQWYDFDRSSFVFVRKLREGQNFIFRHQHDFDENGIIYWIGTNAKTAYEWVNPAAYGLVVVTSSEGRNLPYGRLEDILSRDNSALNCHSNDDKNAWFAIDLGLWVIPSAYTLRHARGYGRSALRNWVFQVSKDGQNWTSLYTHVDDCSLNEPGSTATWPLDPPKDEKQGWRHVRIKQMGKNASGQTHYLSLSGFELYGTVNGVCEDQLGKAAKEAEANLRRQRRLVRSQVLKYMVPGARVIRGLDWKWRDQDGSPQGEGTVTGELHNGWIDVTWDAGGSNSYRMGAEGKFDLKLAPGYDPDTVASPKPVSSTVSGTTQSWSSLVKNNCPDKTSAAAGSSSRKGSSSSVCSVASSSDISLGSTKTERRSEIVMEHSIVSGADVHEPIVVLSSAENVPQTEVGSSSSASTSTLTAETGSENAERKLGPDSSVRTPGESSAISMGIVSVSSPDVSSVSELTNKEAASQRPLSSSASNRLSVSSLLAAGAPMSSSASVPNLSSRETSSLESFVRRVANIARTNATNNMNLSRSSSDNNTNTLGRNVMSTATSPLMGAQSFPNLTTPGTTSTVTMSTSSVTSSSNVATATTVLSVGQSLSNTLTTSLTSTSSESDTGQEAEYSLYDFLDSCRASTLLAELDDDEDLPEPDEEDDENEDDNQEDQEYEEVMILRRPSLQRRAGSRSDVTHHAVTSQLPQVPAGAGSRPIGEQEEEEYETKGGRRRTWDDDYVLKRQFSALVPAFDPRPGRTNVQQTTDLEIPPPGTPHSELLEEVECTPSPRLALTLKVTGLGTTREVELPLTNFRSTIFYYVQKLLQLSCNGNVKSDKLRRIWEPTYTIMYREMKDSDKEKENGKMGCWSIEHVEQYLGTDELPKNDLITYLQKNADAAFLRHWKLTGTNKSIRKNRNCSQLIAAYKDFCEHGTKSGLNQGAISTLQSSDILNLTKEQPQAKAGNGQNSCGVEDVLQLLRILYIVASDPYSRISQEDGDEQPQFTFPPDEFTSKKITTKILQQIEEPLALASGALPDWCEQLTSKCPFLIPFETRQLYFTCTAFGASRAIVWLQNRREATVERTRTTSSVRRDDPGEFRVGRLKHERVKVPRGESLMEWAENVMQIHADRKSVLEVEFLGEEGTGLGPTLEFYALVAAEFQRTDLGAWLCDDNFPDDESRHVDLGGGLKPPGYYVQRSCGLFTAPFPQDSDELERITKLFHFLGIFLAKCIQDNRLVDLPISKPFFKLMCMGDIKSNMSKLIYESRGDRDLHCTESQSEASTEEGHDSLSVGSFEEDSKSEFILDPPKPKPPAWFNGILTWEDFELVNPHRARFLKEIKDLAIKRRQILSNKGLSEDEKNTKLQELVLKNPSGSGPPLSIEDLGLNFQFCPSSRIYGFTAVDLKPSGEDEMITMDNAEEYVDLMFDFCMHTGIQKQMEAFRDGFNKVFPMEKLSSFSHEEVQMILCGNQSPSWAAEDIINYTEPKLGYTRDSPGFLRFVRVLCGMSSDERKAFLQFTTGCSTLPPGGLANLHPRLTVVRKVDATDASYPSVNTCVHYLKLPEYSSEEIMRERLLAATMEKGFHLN
Procedure, shortened: (§1)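 Probe competition in native proteome: 5 mg/ml lysate, compound 1 hr 25° C, then desthiobiotin iodoacetamide (10 mM stock) 1 hr 25° C; acetone ppt, urea/DTT reduction, iodoacetamide alkylation, trypsin, streptavidin pull-down.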

SNX8 Sorting nexin-8 = molecular target: T2, SNX8 Sorting nexin-8 (Homo sapiens, UniProt Q9Y5X2)
T2 construct: Cells were resuspended in cold PBS on ice and sonicated with a probe sonicator to achieve lysis; endogenous in cells
T2 sequence (Q9Y5X2 1-465): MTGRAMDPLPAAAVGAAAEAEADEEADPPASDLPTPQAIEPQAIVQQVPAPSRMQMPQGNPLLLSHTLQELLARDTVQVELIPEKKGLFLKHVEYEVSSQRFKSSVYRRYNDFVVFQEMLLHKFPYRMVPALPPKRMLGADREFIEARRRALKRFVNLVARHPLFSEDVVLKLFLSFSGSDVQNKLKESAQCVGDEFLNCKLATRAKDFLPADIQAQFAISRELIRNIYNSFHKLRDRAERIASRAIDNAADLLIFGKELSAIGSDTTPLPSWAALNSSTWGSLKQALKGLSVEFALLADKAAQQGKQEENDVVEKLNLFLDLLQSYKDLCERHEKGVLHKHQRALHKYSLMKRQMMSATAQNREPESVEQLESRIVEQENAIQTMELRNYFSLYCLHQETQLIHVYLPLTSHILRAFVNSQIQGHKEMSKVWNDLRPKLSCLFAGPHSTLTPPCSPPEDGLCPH
Procedure, shortened: as §1

[2] = molecular target: T3, TRIM56 E3 ubiquitin-protein ligase TRIM56 (Homo sapiens, UniProt Q9BRZ2)
T3 construct: Cells were resuspended in cold PBS on ice and sonicated with a probe sonicator to achieve lysis; endogenous in cells
T3 sequence (Q9BRZ2 1-755): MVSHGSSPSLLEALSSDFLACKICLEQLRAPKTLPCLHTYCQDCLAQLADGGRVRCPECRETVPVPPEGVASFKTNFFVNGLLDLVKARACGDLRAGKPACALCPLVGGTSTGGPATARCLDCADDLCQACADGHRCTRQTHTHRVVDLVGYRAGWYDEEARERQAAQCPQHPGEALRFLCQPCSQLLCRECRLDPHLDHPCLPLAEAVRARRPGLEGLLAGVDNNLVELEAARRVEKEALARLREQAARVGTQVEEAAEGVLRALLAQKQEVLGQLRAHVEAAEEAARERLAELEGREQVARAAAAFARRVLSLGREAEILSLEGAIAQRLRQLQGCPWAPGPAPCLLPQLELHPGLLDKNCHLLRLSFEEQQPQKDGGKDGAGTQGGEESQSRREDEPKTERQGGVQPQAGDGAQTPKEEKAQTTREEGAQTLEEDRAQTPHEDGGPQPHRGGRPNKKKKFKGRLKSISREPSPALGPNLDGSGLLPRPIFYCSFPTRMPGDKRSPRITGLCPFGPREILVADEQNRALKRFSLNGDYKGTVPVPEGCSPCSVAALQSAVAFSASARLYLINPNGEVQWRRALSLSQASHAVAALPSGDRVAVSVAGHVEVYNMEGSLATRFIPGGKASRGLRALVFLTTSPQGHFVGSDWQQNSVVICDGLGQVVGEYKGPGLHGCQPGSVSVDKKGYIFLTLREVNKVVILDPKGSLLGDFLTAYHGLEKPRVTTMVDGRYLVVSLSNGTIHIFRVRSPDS
Procedure, shortened: as §1

[3] = molecular target: T4, UBR2 E3 ubiquitin-protein ligase UBR2 (Homo sapiens, UniProt Q8IWV8)
T4 construct: Cells were resuspended in cold PBS on ice and sonicated with a probe sonicator to achieve lysis; endogenous in cells
T4 sequence (Q8IWV8 whole entry): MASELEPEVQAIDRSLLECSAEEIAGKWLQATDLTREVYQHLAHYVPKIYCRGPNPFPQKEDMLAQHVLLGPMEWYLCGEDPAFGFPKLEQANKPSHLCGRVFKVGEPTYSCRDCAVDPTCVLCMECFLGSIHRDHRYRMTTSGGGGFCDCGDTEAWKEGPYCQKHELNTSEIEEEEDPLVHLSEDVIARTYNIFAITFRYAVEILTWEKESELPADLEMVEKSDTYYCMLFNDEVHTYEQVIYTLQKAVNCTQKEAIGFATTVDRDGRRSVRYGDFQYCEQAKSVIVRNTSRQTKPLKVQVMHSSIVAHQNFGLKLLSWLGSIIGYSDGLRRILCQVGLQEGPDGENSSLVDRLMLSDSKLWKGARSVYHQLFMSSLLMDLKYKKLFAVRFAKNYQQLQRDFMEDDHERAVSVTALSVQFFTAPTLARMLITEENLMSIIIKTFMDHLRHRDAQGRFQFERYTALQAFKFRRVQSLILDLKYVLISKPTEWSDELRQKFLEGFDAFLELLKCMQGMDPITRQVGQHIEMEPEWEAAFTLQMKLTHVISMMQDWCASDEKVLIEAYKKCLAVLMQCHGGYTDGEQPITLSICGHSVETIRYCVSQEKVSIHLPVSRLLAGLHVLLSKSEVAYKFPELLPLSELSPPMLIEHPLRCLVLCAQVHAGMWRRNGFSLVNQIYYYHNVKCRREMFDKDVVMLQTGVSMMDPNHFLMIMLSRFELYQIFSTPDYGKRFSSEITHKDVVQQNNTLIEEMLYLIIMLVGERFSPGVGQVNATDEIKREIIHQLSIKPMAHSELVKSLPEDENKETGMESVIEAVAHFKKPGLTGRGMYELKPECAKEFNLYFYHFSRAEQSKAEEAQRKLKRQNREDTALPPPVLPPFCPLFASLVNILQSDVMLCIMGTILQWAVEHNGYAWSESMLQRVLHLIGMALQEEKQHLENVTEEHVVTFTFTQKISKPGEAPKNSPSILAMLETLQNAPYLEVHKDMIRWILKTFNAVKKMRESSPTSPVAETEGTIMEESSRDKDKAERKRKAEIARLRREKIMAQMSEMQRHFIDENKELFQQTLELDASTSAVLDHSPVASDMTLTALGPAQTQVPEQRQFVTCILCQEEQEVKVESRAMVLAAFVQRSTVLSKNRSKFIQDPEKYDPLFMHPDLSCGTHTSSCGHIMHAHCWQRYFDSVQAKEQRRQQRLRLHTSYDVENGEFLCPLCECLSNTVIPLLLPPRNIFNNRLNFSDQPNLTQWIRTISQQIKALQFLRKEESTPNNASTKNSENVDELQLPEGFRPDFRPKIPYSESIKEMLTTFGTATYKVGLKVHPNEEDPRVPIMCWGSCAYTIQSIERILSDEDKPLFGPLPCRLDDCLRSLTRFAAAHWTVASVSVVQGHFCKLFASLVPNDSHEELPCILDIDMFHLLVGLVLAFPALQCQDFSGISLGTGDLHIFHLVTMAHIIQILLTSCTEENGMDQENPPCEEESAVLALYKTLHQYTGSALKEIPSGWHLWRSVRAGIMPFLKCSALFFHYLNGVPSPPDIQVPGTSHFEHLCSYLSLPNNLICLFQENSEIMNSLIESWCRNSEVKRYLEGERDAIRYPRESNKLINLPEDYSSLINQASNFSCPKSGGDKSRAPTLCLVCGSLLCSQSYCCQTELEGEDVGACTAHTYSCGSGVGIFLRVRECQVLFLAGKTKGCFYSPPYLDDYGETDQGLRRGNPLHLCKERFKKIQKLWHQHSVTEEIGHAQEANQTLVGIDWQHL
Procedure, shortened: as §1

Structure (SMILES)	Liganded ([1]; HECTD1 Res# 1855, uniprot Q9ULT8)	Liganded (SNX8 Sorting nexin-8; SNX8 Res# 200, uniprot Q9Y5X2)	Liganded ([2]; TRIM56 Res# 338, uniprot Q9BRZ2)	Liganded ([3]; UBR2 Res# 1717, uniprot Q8IWV8)	100 ave ([1]; uniprot Q9ULT8)	500 ave ([1]; uniprot Q9ULT8)	100 Max ([1]; uniprot Q9ULT8, unit assumed) [%]	500 Max ([1]; uniprot Q9ULT8, unit assumed) [%]	100 Max (SNX8 Sorting nexin-8; uniprot Q9Y5X2)	100 ave (SNX8 Sorting nexin-8; uniprot Q9Y5X2)	KB03_500 uM_percent_inhibition ([2]; 500 uM, UniProt Q9BRZ2) [%]	Liganded ([2]; TRIM56 Res# 36, uniprot Q9BRZ2)	500 Max ([2]; uniprot Q9BRZ2)	500 ave ([2]; uniprot Q9BRZ2)	100 Max ([3]; uniprot Q8IWV8)	100 ave ([3]; uniprot Q8IWV8)	500 ave ([3]; uniprot Q8IWV8)	500 Max ([3]; uniprot Q8IWV8, unit assumed) [%]
COc1ccc2c(c1)CCCN2C(=O)CCl [KB02]	YES	YES	YES	YES														
O=C(CCl)Nc1cc(C(F)(F)F)cc(C(F)(F)F)c1 [KBO3]					0.1	72.6	1.2	72.6	36.21	36.21	93	YES	78.3	78.3	18.5	8.3	60.0	65.9
